Experimental data taken from patent US7816521B2, “1,2,4-benzotriazine-1,4-dioxides” (Auckland Uniservices Limited, priority 2004, dated 2010).

Columns and labels:
[1] = tested on: human colon carcinoma cell line HT-29; assay: Proliferation assay (IC50) under aerobic and hypoxic conditions; format: cell-based; details: for IC50: Homo sapiens, HT-29, HT29, anoxic, 4 hr exposure; for HCR: hypoxic cytotoxicity ratio: aerobic IC50 / hypoxic IC50, HT29
Method: Compounds representative of the invention were evaluated under both aerobic and hypoxic conditions in a proliferation assay (IC50) using the human colon carcinoma cell line HT-29 as previously described [Hay et al, J. Med. Chem, 2003, 46, 169]. For each experiment, compounds were simultaneously tested under both oxic and hypoxic conditions and included TPZ as an independent internal control at the front and back of the assay. In all cases, a 8-methyl-5-nitroquinoline derivative was used as a second internal control to confirm that strict hypoxia was present during the experiment [Siim et al., Br. J. Cancer 1994, 70, 596].

[2] = tested on: HT29 multicellular layers; format: in vitro ADME; details: human
Method: A: Diagram of a Millicell® CM culture insert used for growing MCLs on a porous, collagen-coated Teflon membrane. B: H&E-stained transverse section of an HT-29 MCL three days after initiating growth with 10^6 cells. The Teflon membrane is ca 30 μm thick. C: Diffusion apparatus for measurement of transport through MCLs. D: Diffusion of TPZ (100 μM) through well oxygenated (open circles) and […] poorly oxygenated (filled circles) HT29 MCLs of equivalent thickness (141±5 μm). Concentrations are normalized to the initial concentration in the donor compartment (Co). The Lines are fits to a reaction-diffusion model. Also shown is the diffusion of compound #20 through a well oxygenated MCL of a similar thickness illustrating the effect of raising the diffusion coefficient from 4×10^−7 cm^2s^−1 to 1.4×10^−6 cm^2s^−1.
The diffusion coefficients in HT29 MCL (DMCL) of compounds representative of the invention were determined either by: • 1. Measurement of drug diffusion in HT29 MCL (grown in culture inserts and seeded at 1×10^6 cells per insert and grown for 3-4 days) in a 2 chamber diffusion apparatus containing culture medium with measurement from both the donor and receiver compartments and gassing at ≧20% O2 to suppress bioreductive metabolism as described in Hicks et al (Cancer Res. 2003, 63, 5970-5977). Samples of medium are taken at intervals, drug concentrations determined by HPLC or LCMS and the concentration-time profile was fitted to Fick's second law of diffusion and the differential equation was solved numerically to obtain the estimate of DMCL.
OR • 2. Calculated from the logistic regression equation
where • a. Log P7.4 is the base 10 logarithm of the octanol-water partition coefficient of the compound at pH 7.4 measured or calculated using the techniques described below • b. HD is the number of hydrogen bond donors (which is the sum of all NH— and OH-groups) • c. HA is the number of hydrogen bond acceptors (which is the sum of all N— and O-atoms) • d. Mr is the molecular weight of the non-ionised drug and a, g, d, a, x0, e, h, and b are regression coefficients as outlined in the table.
Values of the coefficient g are cell line dependent; this value has been determined as 0.3051 (SE 0.0427, CV 13.99%, p<0.001) for SiHa MCLs, and is set at zero for HT29 MCLs.

For CN(CCCNC(=O)c1cccc2cc3ccccc3nc12)CCCNc1n[n+]([O-])c2ccccc2[n+]1[O-] [L], the IC50 [1] was 50 nM, the HCR [1] was 154.0 and the DMCL [2] was 3.82 × 10^−7 cm^2s^−1.

Nc1n[n+]([O-])c2c(Cl)cccc2[n+]1[O-] [D, 8-Chloro-1,2,4-benzotriazin-3-amine 1,4-Dioxide] was tested, and the IC50 [1] was 550 nM, the HCR [1] was 13.6 and the DMCL [2] was 6.69 × 10^−7 cm^2s^−1.

CCCN(CCC)CCNc1n[n+]([O-])c2ccccc2[n+]1[O-] [G] was tested, and the IC50 [1] was 1650 nM, the HCR [1] was 81.6 and the DMCL [2] was 1.71 × 10^−6 cm^2s^−1.

In the case of Cc1ccc2c(c1)[n+]([O-])nc(NCCN(C)C)[n+]2[O-] [F, 7-Methyl-N-[2-(dimethylamino)ethyl]-1,2,4-benzotriazin-3-amine 1,4-Dioxide], the IC50 [1] is reported as 1080 nM, the HCR [1] is reported as 34.3 and the DMCL [2] is reported as 5.09 × 10^−7 cm^2s^−1.

With COCCc1n[n+]([O-])c2ccccc2[n+]1[O-] [J] the IC50 [1] was 3500 nM, the HCR [1] was 49.4 and the DMCL [2] was 2.09 × 10^−6 cm^2s^−1.

For [O-][n+]1nc(NCCCCCCNc2c3ccccc3nc3ccccc23)[n+]([O-])c2ccccc21 [K], the IC50 [1] was 25 nM, the HCR [1] was 31.8 and the DMCL [2] was 6.17 × 10^−7 cm^2s^−1.

For Nc1n[n+]([O-])c2ccccc2[n+]1[O-] [A, tirapazamine, reference compound], the DMCL [2] was 3.97 × 10^−7 cm^2s^−1, the diffusion coefficient ([2]; 100 μM) was 4×10^−7 cm^2s^−1 and the “reduction in diffusion in poorly oxygenated versus well oxygenated HT29 MCLs” value ([2]; 100 μM) was 2 fold.

With Cc1ccc2c(c1)[n+]([O-])c(NCCN(C)C)n[n+]2[O-] [H, N^1,N^1-Dimethyl-N^2-(6-methyl-1,4-dioxido-1,2,4-benzotriazin-3-yl)-1,2-ethanediamine] the IC50 [1] was 1850 nM, the HCR [1] was 159.0 and the DMCL [2] was 3.99 × 10^−7 cm^2s^−1.

With Cc1ccc2c(c1)[n+]([O-])c(N)n[n+]2[O-] [B, 6-Methyl-1,2,4-benzotriazin-3-amine 1,4-Dioxide] the IC50 [1] was 12900 nM, the HCR [1] was 35.8 and the DMCL [2] was 5.43 × 10^−7 cm^2s^−1.

Nc1n[n+]([O-])c2cc(Cl)ccc2[n+]1[O-] [C, 7-Chloro-1,2,4-benzotriazin-3-amine 1,4-Dioxide] was tested, and the IC50 [1] was 730 nM, the HCR [1] was 28.5 and the DMCL [2] was 8.70 × 10^−7 cm^2s^−1.

For Cc1ccc2c(c1)[n+]([O-])c(NCCCN(C)CCCNC(=O)c1cccc3cc4ccccc4nc13)n[n+]2[O-] [N], the IC50 [1] was 225 nM, the HCR [1] was 134.0 and the DMCL [2] was 1.05 × 10^−7 cm^2s^−1.

CCc1n[n+]([O-])c2ccccc2[n+]1[O-] [I] was tested, and the IC50 [1] was 6780 nM, the HCR [1] was 54.2 and the DMCL [2] was 2.61 × 10^−6 cm^2s^−1.

In the case of CN(CCCNC(=O)c1cccc2ccc(-c3ccncc3)nc12)CCCNc1n[n+]([O-])c2ccccc2[n+]1[O-] [M], the IC50 [1] is reported as 125 nM, the HCR [1] is reported as 119.0 and the DMCL [2] is reported as 9.80 × 10^−8 cm^2s^−1.

With CS(=O)(=O)c1ccc2c(c1)[n+]([O-])nc(N)[n+]2[O-] [E, 7-(Methylsulfonyl)-1,2,4-benzotriazin-3-amine 1,4-Dioxide] the IC50 [1] was 9950 nM, the HCR [1] was 12.0 and the DMCL [2] was 2.13 × 10^−7 cm^2s^−1.
